Entries after “also recorded” stand apart in the source; their conditions may differ. Bridge positions count the residues as written; N and C are the ends. Ends that are not written are not given here.
How the values were obtained:
C57BL/6J mice [1] = test: Oral glucose tolerance test (OGTT), blood glucose; type: in vivo, mouse; details: AVP 1 mg/kg i.p., 15 min before 1.5 g/kg oral glucose; 8 mice/group (Fig. 5A, 5B)
Experimental: (§1) Oral glucose tolerance test and insulin detection
(§2) For oral glucose tolerance test (OGTT), mice were fasted overnight and then given either 0.1% DMSO in normal saline (vehicle) or 1 mg/kg AVP and 10 mg/kg Exendin (9–39) (n = 8 per treatment group) via intraperitoneal injection. A glucose bolus was delivered (1.5 g/kg orally) 15 min later. Blood was collected from a tail nick at designated time points, and plasma glucose levels were determined with a glucose meter. To detect insulin level, blood was collected from the retro-orbital plexus of mice 15 min after glucose administration (n = 4 per treatment group) and detected with an ELISA kit for mouse insulin (Crystal Chem, #90080).

islet β cells = details: cytokine-induced apoptosis; cited from earlier work
From the text: (§3) AVP regulates the hypothalamic-pituitary-adrenal (HPA) axis, stimulating the release of corticotropin-releasing hormone (CRH) through V1bR activation, thereby promoting CRH-induced insulin secretion.

[2] = tested on: mouse and rat pancreas, and isolated mouse islets; details: mouse and rat pancreas, and isolated mouse islets; cited from earlier work
From the text: as §3

[3] = tested on: co-culture of INS-1E and αTC1-9 cells; test: Glucagon secretion from co-cultured INS-1E and αTC1-9 cells; type: cell-based, rat (INS-1E) and mouse (αTC1-9); details: 100 nM, 1 h, 16.8 mM glucose, both 2.5 × 10^4 cells/well (Fig. 3G)
Experimental: (§4) Cell culture and hormone secretion
(§5) The INS-1E cells were cultured in RPMI 1640 supplemented with 10% FBS, the αTC1-9 cells were cultured in low glucose DMEM supplemented with 10% FBS and the MIN6 cells were cultured in high glucose DMEM supplemented with 10% FBS. Cells were grown in 96-well plates at a density of 5 × 10^4 cells (INS-1E and αTC1-9) or 2 × 10^4 cells (MIN6) per well. After preincubation for 30 min at 37 °C in KRBB, the cells were incubated with either 0.1% DMSO or compounds for 1 h at 37 °C in KRBB containing either 16.8 mM or 2.8 mM glucose. […] For co-culturing of INS-1E and αTC1-9 cells, RPMI 1640 supplemented with 10% FBS was used, both cell densities were 2.5 × 10^4 cells per well in 96-well plates.

INS-1E cells = test: Insulin secretion from INS-1E cells; type: cell-based, rat; details: 100 nM, 1 h, 37 °C, 16.8 mM glucose, 5 × 10^4 cells/well; HTRF; 3 technical replicates (Fig. 1E)
Experimental: as §4, §5

C57BL/6J mice [4] = test: Plasma insulin in OGTT; type: in vivo, mouse; details: AVP 1 mg/kg i.p.; blood 15 min after glucose administration; ELISA; 4 mice/group (Fig. 5C)
Experimental: as §1, §2

αTC1-9 cells = test: Glucagon secretion from αTC1-9 cells; type: cell-based, mouse; details: 100 nM, 1 h, 16.8 mM glucose, 5 × 10^4 cells/well; HTRF; 3 technical replicates (Fig. 3F)
Experimental: as §4, §5

[5] = tested on: co-culture of INS-1E and αTC1-9 cells; test: Insulin secretion from co-cultured INS-1E and αTC1-9 cells; type: cell-based, rat (INS-1E) and mouse (αTC1-9); details: 1 h
Experimental: as §4, §5
Specific sequences of shRNAs (Table 1) targeting GCGR or GLP-1R mRNA were constructed into pLKO.1 puro lentiviral vector (Addgene, #8453). Lentiviral vectors and packaging vectors were transfected into HEK293T cells by FuGENE HD Transfection Reagent (Promega, #E2312) to produce virus particles. INS-1E cells were seeded onto 6-well plates at a density of 5 × 10^5 cells per well and incubated with viruses and 5 μg/mL polybrene for 48 h. Transfected INS-1E cells were collected for real-time qPCR and co-culture experiments.

isolated mouse islets [6] = test: Insulin secretion from isolated mouse islets; type: cell-based, mouse (C57BL/6J); details: for insulin secretion from isolated islets: 2 h
[7] = tested on: pancreas of mouse and rat, and the α cell line InR1G9; details: cited from earlier work
From the text: However, this regulatory mechanism is impaired in individuals with type 1 diabetes. Compared to wild-type mice, V1b receptor k ...

isolated mouse islets [8] = test: Glucagon secretion from isolated mouse islets; type: cell-based, mouse (C57BL/6J)
Experimental: Hormone secretion from isolated islets
Islets were isolated from anesthetized male C57BL/6J mice (8 wk old). 1 mg/mL Collagenase P (Roche, #11213873001) solution was injected into the pancreas via the bile duct, and the pancreas was digested at 37 °C for 15 min. The mixture was centrifuged at 800 rpm for 3 min to collect the precipitate, which was then washed three times with HBSS (5.4 mM KCl, 0.3 mM Na2HPO4, 0.4 mM KH2PO4, 4.2 mM NaHCO3, 1.3 mM CaCl2, 0.5 mM MgCl2, 0.6 mM MgSO4, 137 mM NaCl, 5.6 mM D-glucose, pH 7.4). Then, the precipitate was re-suspended in HBSS and filtered through a 70 μm filter to obtain islets. The detached islets were cultured overnight in RPMI 1640 supplemented with 10% fetal bovine serum (FBS). The islets were transferred to 48-well plates and starved with KRBB (118.5 mM NaCl, 2.54 mM CaCl2, 1.19 mM KH2PO4, 4.74 mM KCl, 25 mM NaHCO3, 1.19 mM MgSO4, 10 mM HEPES, pH 7.4) containing 0.5% BSA for 60 min. Subsequently, the islets were incubated with 0.1% dimethyl sulfoxide (DMSO) or compounds for a duration of 2 h at 37 °C in 1 mL KRBB containing 16.8 mM or 2.8 mM glucose. Supernatants were collected, and the insulin concentrations were measured using HTRF Insulin kit (Cisbio, #62INSPEC) and an Envision Plate Reader (PerkinElmer).

MIN6 cells = test: Insulin secretion from MIN6 cells; type: cell-based, mouse; details: 100 nM, 1 h, 37 °C, 16.8 mM glucose, 2 × 10^4 cells/well; HTRF; 3 technical replicates (Fig. 1F)
Experimental: as §4, §5

For “Arginine vasopressin (CYFQNCPRG-NH2; disulfide 1-6; ends not checked; UniProt P01185 20-28, looked up) [AVP, neuropeptide composed of nine amino acids]”, the “blood glucose levels during OGTT” value (C57BL/6J mice [1]) is given as “significantly lowered blood glucose levels during the OGTT”, the “protection of islet β cells” value (islet β cells) is given as “confer protection on islet β cells against cytokine-induced apoptosis” and the insulin secretion [2] is given as “enhance insulin secretion”. The “glucagon secretion from co-culture” value [3] was “induce secretion of glucagon and insulin in high-glucose condition”, the “insulin secretion from INS-1E cells” value (INS-1E cells) was “failed to induce insulin release; also recorded: could not directly induce insulin secretion from INS-1E cells” and the “plasma insulin in OGTT” value (C57BL/6J mice [4]) was “significantly stimulated the release of insulin”. For the same substance, the “glucagon secretion from αTC1-9 cells” value (αTC1-9 cells) was “could induce glucagon release from αTC1-9 cells”, the “insulin secretion from co-culture” value ([5]; 100 nM, 16.8 mM glucose, both 2.5 × 10^4 cells/well (Fig. 3H)) was “induce secretion of glucagon and insulin in high-glucose condition” and the “AVP-induced insulin secretion from co-culture after Gcgr knockdown” value ([5]; INS-1E infected with shRNA-Gcgr, AVP (1 nM), 16.8 mM glucose (Fig. 4K)) was “no significant effect”. The “AVP-induced insulin secretion from co-culture after Glp1r knockdown” value ([5]; INS-1E infected with shRNA-Glp1r, AVP (1 nM), 16.8 mM glucose (Fig. 4L)) was “significantly attenuated AVP-induced insulin secretion”, the “insulin secretion from isolated islets” value (isolated mouse islets [6]; 100 nM, AVP compared with GLP-1, 3 technical replicates (Fig. 1D)) was “stimulated similar level of glucose-dependent insulin secretion from freshly isolated islets as GLP-1” and the “insulin secretion from isolated islets, glucose dependence” value (isolated mouse islets [6]; 100 nM, low (2.8 mM) and high (16.8 mM) glucose (Fig. 3D, 3E)) was “only induced insulin secretion from the islets in high-glucose medium”. For the same substance, the “insulin secretion from isolated islets” value (isolated mouse islets [6]; various concentrations of AVP, 37 °C, 10 islets/well, 16.8 mM glucose KRBB, HTRF, mean ± SEM, 3 technical replicates (Fig. 1A)) was “induced insulin secretion in a dose-dependent manner in high glucose condition”, the glucagon secretion [7] was “stimulate glucagon secretion” and the “glucagon secretion from isolated islets, glucose dependence” value (isolated mouse islets [8]; AVP (100 nM), low (2.8 mM) and high (16.8 mM) glucose (Fig. 3C)) was “induced glucagon secretion from the isolated islets in low- and high-glucose conditions”. For the same substance, the “glucagon secretion from isolated islets” value (isolated mouse islets [8]; various concentrations of AVP, 2 h, 16.8 mM glucose, 10 islets/well, 3 technical replicates (Fig. 3A)) was “induced dose-dependent secretion of glucagon” and the “insulin secretion from MIN6 cells” value (MIN6 cells) was “failed to induce insulin release”.

From PMC11365140 (Cell & Bioscience, 2024)
